Results on 2 compounds are retold here after patent US20110045097A1, “SOLID PHARMACEUTICAL COMPOSITION COMPRISING IRBESARTAN” (KRKA, d.d. Novo mesto, priority 2006, published 2011).

Data set [1] can be described thus: Solubility in dissolution media / solvents. The format is physicochemical. Particulars: 0.01 M HCl or simulated gastric juice (pH=1.2). How it is done:
WO 05/025566 is directed to irbesartan-containing oral pharmaceutical formulations having improved dissolution profiles, and especially dissolution of 80% or more 15 minutes after dosing and of 90% or more 30 minutes after dosing.

The conditions of data set [2]: as described in WO 05/025566; cited from earlier work.

Structures can show the parent of a compound that is named as a salt.

As to `CCCCC1=NC2(CCCC2)C(=O)N1Cc1ccc(-c2ccccc2-c2nnn[nH]2)cc1` [irbesartan-HCl, irbesartan hydrochloride], the “Solubility as compared to the free irbesartan” value in data set [1] was “higher”.

As for `CCCCC1=NC2(CCCC2)C(=O)N1Cc1ccc(-c2ccccc2-c2nnn[nH]2)cc1` [irbesartan, 2-Butyl-3-[[2′-(1H-tetrazol-5-yl) [1,1′-biphenyl]-4-yl]methyl]-1,3-diazaspiro[4,4]-non-1-en-4-one], in data set [2], the “Solubility in alcohol and CH2Cl2” value is “slightly soluble”; the Solubility in water entry is reported as “insoluble”.
